# The source made the active and inactive calls. The calls are words filed in the database; no cut-off is given here.
# What was measured:
# [1] = Inhibition of TNF-alpha-induced NF-kappaB expressed in human A549 cells treated 1 hr after TNFalpha challenge measured after 6 hrs by luciferase reporter gene assay; format: cell-based
# [2] = Hepatotoxicity against mouse Hepa-1c1c7 cells after 48 hrs by celltiter blue assay; format: toxicity, cell-based
# A549 [3] = experiment: Inhibition of NF-kappaB expressed in human A549 cells assessed as suppression of TNF-alpha-induced IKKalpha level at 25 uM after 7 hrs by Western blotting; format: cell-based
# A549 [4] = experiment: Inhibition of NF-kappaB expressed in human A549 cells assessed as suppression of TNF-alpha-induced p65 level at 25 uM after 7 hrs by Western blotting; format: cell-based
# CCRF-CEM = experiment: Toxicity against human CCRF-CEM cells after 48 hrs by celltiter blue assay; format: cell-based
# A549 [5] = experiment: […] against human A549 cells after 48 hrs by celltiter blue assay; format: toxicity, cell-based; conditions: a549, 48 h
# HL-60 = experiment: Toxicity against human HL60 cells after 48 hrs by celltiter blue assay; format: cell-based; conditions: hl-60, 48 h
# A549 [6] = experiment: Inhibition of NF-kappaB expressed in human A549 cells assessed as prevention of TNF-alpha-induced IkappaBalpha degradation level at 25 uM after 7 hrs by Western blotting; format: cell-based
# A549 [7] = experiment: Inhibition of NF-kappaB expressed in human A549 cells assessed as suppression of TNF-alpha-induced COX2 level at 25 uM after 7 hrs by Western blotting; format: cell-based
Structure (SMILES),IC50 [1],IC50 at 48 h [2],other results
COc1cc(/C=C/c2ccccc2)oc(=O)c1 [DESMETHOXYYANGONIN],33 µg/mL,173 µg/mL,
COC1=CC(=O)O[C@@H](CCc2ccccc2)C1 [DIHYDROKAWAIN],60 µg/mL,175 µg/mL,
COC1=CC(=O)O[C@@H](CCc2ccc3c(c2)OCO3)C1 [DIHYDROMETHYSTICIN],20 µg/mL,313 µg/mL,
COc1ccc(/C=C/C(=O)c2c(O)cc(OC)cc2OC)cc1 [FLAVOKAWAIN A],11.6 µg/mL,13.8 µg/mL,
COc1cc(O)c(C(=O)/C=C/c2ccccc2)c(OC)c1 [FLAVOKAWAIN B],8 µg/mL,6.6 µg/mL,
COc1cc(O)c(C(=O)/C=C/c2ccc(O)cc2)c(OC)c1 [FLAVOKAWAIN C],8.1 µg/mL,9.8 µg/mL,
COC1=CC(=O)O[C@@H](/C=C/c2ccccc2)C1 [KAVAIN],32 µg/mL,166 µg/mL,
COC1=CC(=O)O[C@@H](/C=C/c2ccc3c(c2)OCO3)C1 [METHYSTICIN],0.19 µg/mL,392 µg/mL,inhibition (A549 [3]): Active; inhibition (A549 [4]): Active; Activity (CCRF-CEM): Non-toxic; Activity (A549 [5]): Non-toxic; Activity (HL-60): Non-toxic; inhibition (A549 [6]): Active; inhibition (A549 [7]): Active

# Source: ChEMBL document CHEMBL1156027, “Identification of methysticin as a potent and non-toxic NF-kappaB inhibitor from kava, potentially responsible for kava's chemopreventive activity” (Bioorg Med Chem Lett, 2009)
